The values below are quoted from earlier work in publication PMC3136501 (PLoS ONE, 2011).

The structures appear in SMILES notation.

The test system of this data set is OCTs. Conditions: high-affinity interaction with OCTs; cited from earlier work.

Take `C[C@H](Cn1cnc2c(N)ncnc21)OCP(=O)(O)O` [Tenofovir]: the “IC50 (interaction with OCTs)” value is reported as “low nanomolar range”. In the case of `Nc1nc(=O)n([C@@H]2CS[C@H](CO)O2)cc1F` [Emtricitabine], the “IC50 (interaction with OCTs)” value is “low nanomolar range”.

For `Nc1ccn([C@@H]2CS[C@H](CO)O2)c(=O)n1` [Lamivudine], the “IC50 (interaction with OCTs)” value is “low nanomolar range”. For `Cc1cn([C@H]2C[C@H](N=[N+]=[N-])[C@@H](CO)O2)c(=O)[nH]c1=O` [Azidothymidine], the “IC50 (interaction with OCTs)” value is “low nanomolar range”.

Consider `Nc1nc(NC2CC2)c2ncn([C@H]3C=C[C@@H](CO)C3)c2n1` [Abacavir], for which the “IC50 (interaction with OCTs)” value is given as “low nanomolar range”.
